Compound	Solubility (g/100 g H2O, 25° C.) (25° C.)	Calculated Soluble Zinc (at use level in formula)	Total Zinc Conc. (at use level in formula)
[Cl-].[Cl-].[Zn+2] [ZnCl2, zinc chloride]	408 g/100 g H2O	0.72%	0.72%
[O]=[Zn] [ZnO, zinc oxide]			0.80%

— patent US20180360710A1, “Sodium Zinc Alginate Structurant And Methods For Making And Using the Same” (Colgate-Palmolive Company, priority 2015, published 2018)
